Literature values in US20100178285A1, “SYNERGISTIC ANTHELMINTIC COMPOSITION” (priority 2006, published 2010).
Where two headings read alike, the source gives them in different places.

Columns and labels:
[1] = tested on: Heligmosomoides polygyrus; settings: in vitro, H. polygyrus
[2] = tested on: gastrointestinal nematodes of sheep and goats
[3] = sheep
[4] = tested on: gastrointestinal nematodes of sheep and goats; settings: first farm, ten days after treatment
[5] = tested on: mixed species of gastrointestinal nematodes; settings: sheep, 7.5 mg/kg
[6] = second farm, 10 days after treatment

Row | free T3 and free T4 levels ([3]; either group (7.5 and 40 mg kg(−1))) | inorganic phosphate levels ([3]; groups 1 and 2) | serum albumin level ([3]; groups 1 and 2) | serum cholesterol level ([3]; groups 1 and 2) | triiodothyronine (T3) and thyroxin (T4) levels vs control ([3]; oral 7.5 mg kg(−1) (group 1)) | levels of total T3 ([3]; oral 40 mg kg(−1) (group 2)) | levels of total T4 ([3]; oral 40 mg kg(−1) (group 2)) | creatinine kinase (CK) activity ([3]; oral 7.5 and 40 mg kg(−1)) | lactate dehydrogenase (LDH) activity ([3]; oral 7.5 and 40 mg kg(−1)) | serum alkaline phosphatase (ALP) activities ([3]; oral 7.5 and 40 mg kg(−1)) | Structure (SMILES) | effect of inhibitor on efficacy of the cysteine proteinases [1] | reduction in faecal egg count [2, 6] [%] | alanine aminotransferase (ALT) activity ([3]; oral 7.5 and 40 mg kg(−1)) | aspartate aminotransferase (AST) activity ([3]; oral 7.5 and 40 mg kg(−1)) | reduction in faecal egg count ([2]; first farm, ten days after treatment) [%] | reduction in faecal egg count [4] [%] | reduction in EPG [5] [%]
1 | – | – | – | – | – | – | – | – | – | – | CC(C)C[C@H](NC(=O)[C@H]1O[C@@H]1C(=O)O)C(=O)NCCCCN=C(N)N [Group E-64, E-64] | completely inhibited | – | – | – | – | – | –
2 | – | – | – | – | – | – | – | – | – | – | CCCSc1ccc2nc(NC(=O)OC)[nH]c2c1 [albendazole] | – | 59.4 | – | – | – | – | –
3 | not changed | decreased | increased | increased | no significant changes | increase | decreased | increased significantly | increased significantly | decreased | c1ccc([C@H]2CN3CCSC3=N2)cc1 [levamisole] | – | 99.4 | increased significantly | increased significantly | 98 | 97 | 99.2
